Activity calls are given as the source filed them. The calls are words filed in the database; no cut-off is given here.
T1: Succinyl-diaminopimelate desuccinylase (Haemophilus influenzae (strain ATCC 51907 / DSM 11121 / KW20 / Rd), UniProt P44514)
T1 sequence (P44514 whole entry): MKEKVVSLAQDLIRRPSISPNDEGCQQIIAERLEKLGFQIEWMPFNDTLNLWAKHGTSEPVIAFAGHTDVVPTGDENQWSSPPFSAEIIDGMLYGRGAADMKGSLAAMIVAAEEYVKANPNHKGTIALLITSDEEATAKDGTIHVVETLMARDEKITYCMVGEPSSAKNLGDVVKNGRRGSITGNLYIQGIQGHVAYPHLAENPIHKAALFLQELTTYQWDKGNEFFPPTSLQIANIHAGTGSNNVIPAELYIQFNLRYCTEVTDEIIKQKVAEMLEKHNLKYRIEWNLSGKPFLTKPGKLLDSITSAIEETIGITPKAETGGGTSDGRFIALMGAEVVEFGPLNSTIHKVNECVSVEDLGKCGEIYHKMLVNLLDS

T2: Succinyl-diaminopimelate desuccinylase (Haemophilus influenzae (strain ATCC 51907 / DSM 11121 / KW20 / Rd)) (UniProt P44514)
T2 sequence (whole entry): T1 sequence (P44514 whole entry)

B1: Succinyl-diaminopimelate desuccinylase (Haemophilus influenzae (strain ATCC 51907 / DSM 11121 / KW20 / Rd)), P44514 (protein)
chain: T1 sequence (P44514 whole entry)

What was measured:
[1] = target: T1, Succinyl-diaminopimelate desuccinylase; assay: Inhibition of Haemophilus influenzae DapE at 100 degreeC incubated for 10 mins by ninhydrin based assay
[2] = target: T1, Succinyl-diaminopimelate desuccinylase; assay: Inhibition of Haemophilus influenzae DapE at 80 degreeC incubated for 15 mins by ninhydrin based assay
[3] = target: T2, Succinyl-diaminopimelate desuccinylase (Haemophilus influenzae (strain ATCC 51907 / DSM 11121 / KW20 / Rd)); assay: Thermal stabilization of Haemophilus influenzae DapE assessed as increase in second melting temperature by SYPRO orange dye based thermal shift assay
[4] = target: T1, Succinyl-diaminopimelate desuccinylase; assay: Binding affinity to Haemophilus influenzae DapE assessed as dissociation constant
[5] = target: T2, Succinyl-diaminopimelate desuccinylase (Haemophilus influenzae (strain ATCC 51907 / DSM 11121 / KW20 / Rd)); assay: Thermal stabilization of Haemophilus influenzae DapE assessed as increase in first melting temperature by SYPRO orange dye based thermal shift assay
[6] = substrate: CN(C)[C@@H](CCC[C@H](NC(=O)CCC(=O)O)C(=O)O)C(=O)O; assay: Substrate activity at Haemophilus influenzae DapE assessed as Kcat/Km at 100 DegreeC incubated for 10 mins by ninhydrin assay
[7] = substrate: CN(C)[C@@H](CCC[C@H](NC(=O)CCC(=O)O)C(=O)O)C(=O)O; assay: Substrate activity at Haemophilus influenzae DapE assessed as Kcat/Km at 80 DegreeC incubated for 15 mins by ninhydrin based assay
[8] = substrate: CN[C@@H](CCC[C@H](NC(=O)CCC(=O)O)C(=O)O)C(=O)O; assay: (§1) Substrate activity at Haemophilus influenzae DapE assessed as Kcat/Km incubated for 10 mins by ninhydrin based assay
[9] = substrate: CN(C)[C@@H](CCC[C@H](NC(=O)CCC(=O)O)C(=O)O)C(=O)O; assay: as §1

Molecule | IC50 [1] [µM] | IC50 [2] [µM] | ΔTm [3] [°C] | Kd [4] [µM] | Activity [5] | kcat/Km [6] | kcat/Km [7] | kcat/Km [8] | kcat/Km [9]
CN(C)[C@@H](CCC[C@H](NC(=O)CCC(=O)O)C(=O)O)C(=O)O | 1.5 | 0.89 | 3 | 1320 | Active |  |  |  | 
CN[C@@H](CCC[C@H](NC(=O)CCC(=O)O)C(=O)O)C(=O)O |  |  |  |  | Active |  |  |  | 
B1 |  |  |  |  |  | 4.03 10^5/M/s | 3.49 10^5/M/s | 4.4 10^5/M/s | 3.49 10^5/M/s

Reference: ChEMBL document CHEMBL5344419, “Synthesis and characterization of the N-succinyl-l,l-diaminopimelic acid desuccinylase (DapE) alternate substrate analog N,N-dimethyl-l,l-SDAP” (Bioorg Med Chem, 2023)
